Results published in ChEMBL document CHEMBL5108051, “Improving the Antimicrobial Performance of Amphiphilic Cationic Antimicrobial Peptides Using Glutamic Acid Full-Scan and Positive Charge Compensation Strategies” (J Med Chem, 2022).
Converted amounts (≈) assume the structure as drawn. The source made the active and inactive calls. The rule behind the calls is not given here. Bridge positions count the residues as written; N and C are the ends. Square brackets hold non-standard residues; d marks the D form. Peptide text beside a SMILES is read from it. * marks the point of attachment. X1 = CC[C@H](C)CCCCC(=O)*; Dab = NCC[C@H](N)C(=O)O

Experiments:
Staphylococcus aureus [1] = test: Antibacterial activity against gentamicin resistant Staphylococcus aureus ATCC 25923 assessed as fractional inhibitory concentration index in presence of gentamicin by checkerboard assay; format: functional
Cell membrane [2] = test: Induction of inner membrane permeabilization in Escherichia coli ML-35 ATCC 43837 assessed as increase in absorbance at 1 to 4 times MIC measured at 420 nm in presence of ONPG by microplate reader assay; format: subcellular; settings: DDE = dose-dependent effect
Staphylococcus aureus [3] = test: Antibacterial activity against gentamicin resistant Staphylococcus aureus ATCC 25923 assessed as fractional inhibitory concentration index in presence of kanamycin by checkerboard assay; format: functional
Escherichia coli [4] = test: Antibacterial activity against Escherichia coli ATCC 25922 assessed as fractional inhibitory concentration index in presence of kanamycin by checkerboard assay; format: functional
Staphylococcus aureus [5] = test: Antibacterial activity against Staphylococcus aureus ATCC 25923 assessed as resistance development measured after 15 passages at sub-MIC concentration by resistance development assay; format: functional, organism-based
Escherichia coli [6] = test: Induction of cell membrane damage in Escherichia coli ATCC 25922 assessed as increase in nucleic acid leakage by microplate reader assay; format: functional, organism-based; settings: time 0-6 hrs, TDE = time-dependent effect
Staphylococcus aureus [7] = test: Induction of cell membrane damage in Staphylococcus aureus ATCC 25923 assessed as increase in nucleic acid leakage by microplate reader assay; format: functional, organism-based; settings: time 0-6 hrs, TDE = time-dependent effect
Staphylococcus aureus [8] = test: Antibacterial activity against rifampin resistant Staphylococcus aureus ATCC 25923 assessed as fractional inhibitory concentration index in presence of gentamicin by checkerboard assay; format: functional
Escherichia coli [9] = test: Antibacterial activity against gentamicin resistant Escherichia coli ATCC 25922 assessed as fractional inhibitory concentration index in presence of kanamycin by checkerboard assay; format: functional
Staphylococcus aureus [10] = test: Antibacterial activity against rifampin resistant Staphylococcus aureus ATCC 25923 assessed as fractional inhibitory concentration index in presence of kanamycin by checkerboard assay; format: functional
Staphylococcus aureus [11] = test: In vivo antimicrobial activity against Staphylococcus aureus ATCC 25923 infected in BALB/C mouse pulmonary infection model at 5 to 10 mg/kg, ip; format: functional, organism-based; settings: dose 5-10 mg/kg
Cell membrane [12] = test: Induction of cell membrane disruption in Escherichia coli ATCC 25922 assessed as cell morphological damage measured after 30 mins by […] electron microscope analysis; format: subcellular
Escherichia coli [13] = test: Antibacterial activity against rifampin resistant Escherichia coli ATCC 25922 assessed as fractional inhibitory concentration index in presence of kanamycin by checkerboard assay; format: functional
Escherichia coli [14] = test: Antibacterial activity against gentamicin resistant Escherichia coli ATCC 25922 assessed as fractional inhibitory concentration index in presence of vancomycin by checkerboard assay; format: functional
Staphylococcus aureus [15] = test: Antibacterial activity against Staphylococcus aureus ATCC 25923 assessed as growth inhibition measured after 18 to 24 hrs by CLSI based broth microdilution method; format: functional; settings: time 18-24 hrs
Cell membrane [16] = test: Induction of outer membrane permeabilization to NPN in Escherichia coli ATCC 25922 cells assessed as increase in fluorescence intensity by NPN fluorescent dye based microplate reader assay; format: subcellular
[17] = Retention time of the compound by RP-HPLC analysis; format: physicochemical
[18] = Stability of the compound in mouse serum at 10 mM assessed as half life by RP-HPLC analysis; format: ADME, cell-free
Escherichia coli [19] = test: Antibacterial activity against gentamicin resistant Escherichia coli ATCC 25922 assessed as fractional inhibitory concentration index in presence of gentamicin by checkerboard assay; format: functional
Staphylococcus aureus [20] = test: Antibacterial activity against rifampin resistant Staphylococcus aureus ATCC 25923 assessed as fractional inhibitory concentration index in presence of vancomycin by checkerboard assay; format: functional
Staphylococcus aureus [21] = test: Antibacterial activity against rifampin resistant Staphylococcus aureus ATCC 25923 assessed as fractional inhibitory concentration index in presence of rifampin by checkerboard assay; format: functional
Cell membrane [22] = test: Induction of cell membrane disruption in Staphylococcus aureus ATCC 25923 assessed as cell morphological damage measured after 120 mins by […] electron microscope analysis; format: subcellular
Staphylococcus aureus [23] = test: Antibacterial activity against Staphylococcus aureus ATCC 25923 assessed as fractional inhibitory concentration index in presence of kanamycin by checkerboard assay; format: functional
Escherichia coli [24] = test: Antibacterial activity against rifampin resistant Escherichia coli ATCC 25922 assessed as fractional inhibitory concentration index in presence of rifampin by checkerboard assay; format: functional
Staphylococcus aureus [25] = test: Antibacterial activity against Staphylococcus aureus ATCC 25923 assessed as fractional inhibitory concentration index in presence of gentamicin by checkerboard assay; format: functional
Pseudomonas aeruginosa = test: Antibacterial activity against Pseudomonas aeruginosa ATCC 27853 assessed as growth inhibition measured after 18 to 24 hrs by CLSI based broth microdilution method; format: functional; settings: time 18-24 hrs
Cell membrane [26] = test: Induction of cell membrane disruption in Staphylococcus aureus ATCC 25923 assessed as increase in PI uptake measured after 30 to 120 mins by propidium iodide staining based FACS flow cytometry analysis (reference value: 15%); format: subcellular; settings: time 30-120 min
Bacillus subtilis = test: Antibacterial activity against Bacillus subtilis ATCC 23857 assessed as growth inhibition measured after 18 to 24 hrs by CLSI based broth microdilution method; format: functional; settings: time 18-24 hrs
Escherichia coli [27] = test: Antibacterial activity against rifampin resistant Escherichia coli ATCC 25922 assessed as fractional inhibitory concentration index in presence of gentamicin by checkerboard assay; format: functional
Escherichia coli [28] = test: Antibacterial activity against Escherichia coli ATCC 25922 assessed as growth inhibition measured after 18 to 24 hrs by CLSI based broth microdilution method; format: functional; settings: time 18-24 hrs
Staphylococcus aureus [29] = test: Antibacterial activity against Staphylococcus aureus ATCC 25923 assessed as fractional inhibitory concentration index in presence of vancomycin by checkerboard assay; format: functional
Cell membrane [30] = test: Induction of cell membrane disruption in Escherichia coli ATCC 25922 assessed as increase in PI uptake measured after 30 to 120 mins by propidium iodide staining based FACS flow cytometry analysis (reference value: 6.0 %); format: subcellular; settings: time 30-120 min
Staphylococcus aureus [31] = test: Antibacterial activity against gentamicin resistant Staphylococcus aureus ATCC 25923 assessed as fractional inhibitory concentration index in presence of rifampin by checkerboard assay; format: functional
Cell membrane [32] = test: Induction of cytoplasmic membrane depolarization in Escherichia coli ATCC 25922 assessed as increase in fluorescence intensity measured within 1 min by DiSC3-5 dye based fluorescence method; format: subcellular
Cell membrane [33] = test: Induction of cell membrane disruption in Escherichia coli ATCC 25922 assessed as cell morphological damage measured after 120 mins by […] electron microscope analysis; format: subcellular
Klebsiella pneumoniae = test: Antibacterial activity against Klebsiella pneumoniae ATCC 700603 assessed as growth inhibition measured after 18 to 24 hrs by CLSI based broth microdilution method; format: functional; settings: time 18-24 hrs
[34] = Acute toxicity in BALB/c mouse assessed as mortality at 80 mg/kg, ip administered as single dose measured for 7 days; format: organism-based; settings: in vivo, time 7 day
Escherichia coli [35] = test: Antibacterial activity against gentamicin resistant Escherichia coli ATCC 25922 assessed as fractional inhibitory concentration index in presence of rifampin by checkerboard assay; format: functional
Cell membrane [36] = test: Induction of outer membrane permeabilization to NPN in Staphylococcus aureus ATCC 25923 cells assessed as increase in fluorescence intensity measured within 1 min by NPN fluorescent dye based microplate reader assay; format: subcellular

Row | SMILES | fractional inhibitory concentration index (FICI) (Staphylococcus aureus [1]) | Activity (Cell membrane [2]) | fractional inhibitory concentration index (FICI) (Staphylococcus aureus [3]) | fractional inhibitory concentration index (FICI) (Escherichia coli [4]) | Activity (Staphylococcus aureus [5]) | Activity (Escherichia coli [6]) | Activity (Staphylococcus aureus [7]) | fractional inhibitory concentration index (FICI) (Staphylococcus aureus [8]) | fractional inhibitory concentration index (FICI) (Escherichia coli [9]) | fractional inhibitory concentration index (FICI) (Staphylococcus aureus [10]) | Activity (Staphylococcus aureus [11]) | Activity (Cell membrane [12]) | fractional inhibitory concentration index (FICI) (Escherichia coli [13]) | fractional inhibitory concentration index (FICI) (Escherichia coli [14]) | MIC (Staphylococcus aureus [15]) | Activity (Cell membrane [16]) | Retention_time [17] | half-life at 10000 µM [18] | fractional inhibitory concentration index (FICI) (Escherichia coli [19]) | fractional inhibitory concentration index (FICI) (Staphylococcus aureus [20]) | further results
1 | CC(C)C[C@H](NC(=O)[C@H](CC(C)C)NC(=O)[C@H](CCC(=O)O)NC(=O)[C@H](CCCCN)NC(=O)[C@H](CC(C)C)NC(=O)[C@H](CC(C)C)NC(=O)[C@H](CCCCN)NC(=O)[C@H](C)NC(=O)[C@@H](NC(=O)[C@H](CCCCN)NC(=O)[C@@H]1CCCN1C(=O)[C@H](CC(C)C)NC(=O)[C@@H](N)Cc1ccccc1)C(C)C)C(N)=O (H-FLPKVAKLLKELL-NH2) | 0.75 | Dde | 1 | 0.625 | Active | Tde | Tde | 0.5 | 1.25 | 0.625 | Active | Active | 0.75 | 0.75 | 8 µM (≈ 12.1 µg/mL) | Active | 16.475 min | 578 min | 1.25 | 1 | fractional inhibitory concentration index (FICI) (Staphylococcus aureus [21]): 0.75; Activity (Cell membrane [22]): Active; fractional inhibitory concentration index (FICI) (Staphylococcus aureus [23]): 0.625; fractional inhibitory concentration index (FICI) (Escherichia coli [24]): 0.75; fractional inhibitory concentration index (FICI) (Staphylococcus aureus [25]): 0.625; MIC (Pseudomonas aeruginosa): 8 µM (≈ 12.1 µg/mL); Activity (Cell membrane [26]): 49.3%; MIC (Bacillus subtilis): 4 µM (≈ 6.04 µg/mL); fractional inhibitory concentration index (FICI) (Escherichia coli [27]): 0.75; MIC (Escherichia coli [28]): 8 µM (≈ 12.1 µg/mL); fractional inhibitory concentration index (FICI) (Staphylococcus aureus [29]): 0.75; Activity (Cell membrane [30]): 83.1%; fractional inhibitory concentration index (FICI) (Staphylococcus aureus [31]): 0.625; Activity (Cell membrane [32]): Active; Activity (Cell membrane [33]): Active; MIC (Klebsiella pneumoniae): 16 µM (≈ 24.2 µg/mL); mortality at 168 h ([34]; BALB/c, read-out: Activity): 40%; fractional inhibitory concentration index (FICI) (Escherichia coli [35]): 0.625; Activity (Cell membrane [36]): Active
2 | CC[C@H](C)CCCCC(=O)N[C@@H](CCN)C(=O)N[C@H](C(=O)N[C@@H](CCN)C(=O)N[C@H]1CCNC(=O)[C@H]([C@@H](C)O)NC(=O)[C@H](CCN)NC(=O)[C@H](CCN)NC(=O)[C@H](CC(C)C)NC(=O)[C@@H](Cc2ccccc2)NC(=O)[C@H](CCN)NC1=O)[C@@H](C)O (X1-[Dab]T[Dab][Dab][Dab][dF]L[Dab][Dab]T; lactam 4-C) | 0.5 | Dde | 0.625 | 0.375 | Active | Tde | Tde | 0.375 | 0.375 | 0.625 | Active | Active | 0.375 | 0.3125 | 16 µM (≈ 19.3 µg/mL) | Active | 13.125 min | 752 min | 0.625 | 1 | fractional inhibitory concentration index (FICI) (Staphylococcus aureus [21]): 1; Activity (Cell membrane [22]): Active; fractional inhibitory concentration index (FICI) (Staphylococcus aureus [23]): 0.75; fractional inhibitory concentration index (FICI) (Escherichia coli [24]): 0.5625; fractional inhibitory concentration index (FICI) (Staphylococcus aureus [25]): 0.75; MIC (Pseudomonas aeruginosa): 2 µM (≈ 2.41 µg/mL); Activity (Cell membrane [26]): 45.8%; MIC (Bacillus subtilis): 4 µM (≈ 4.81 µg/mL); fractional inhibitory concentration index (FICI) (Escherichia coli [27]): 0.375; MIC (Escherichia coli [28]): 4 µM (≈ 4.81 µg/mL); fractional inhibitory concentration index (FICI) (Staphylococcus aureus [29]): 1.0625; Activity (Cell membrane [30]): 38.5%; fractional inhibitory concentration index (FICI) (Staphylococcus aureus [31]): 0.5625; Activity (Cell membrane [32]): Active; Activity (Cell membrane [33]): Active; MIC (Klebsiella pneumoniae): 4 µM (≈ 4.81 µg/mL); Activity ([34]; ip, 80 mg/kg, 168 h): Toxic; fractional inhibitory concentration index (FICI) (Escherichia coli [35]): 0.375; Activity (Cell membrane [36]): Active
